Measurements as given in PMC11356900, “Synthesis, Structural Properties and Biological Activities of Novel Hydrazones of 2-, 3-, 4-Iodobenzoic Acid” (Molecules, 2024).
Values after ≈ are worked out from the molar mass of the structure shown.

Experiments:
[1] = system: Staphylococcus aureus ATCC 29213; test: Broth microdilution MIC/MBC; settings: ATCC29213
[2] = system: Proteus mirabilis ATCC 12453; test: Broth microdilution MIC/MBC; settings: ATCC12453
A549 cell line = test: MTT cytotoxicity assay; type: cell-based
Method: (§1) Among all the newly synthesized compounds, four compounds designated as: 14, 20, 21 and 27 were selected for further testing of their cytotoxic properties at the doses of 10, 25, 50, 75 and 100 µM. The cytotoxic properties of the above compounds were tested on the cancer cell lines, i.e., A549 (ECACC 86012804) (non-small-cell lung cancer), T47D (ECACC 85102201) (breast cancer), HeLa (ATCC® CCL-2™) (cervical cancer) and normal line L929 (NCTC clone 929, ATCC® CCL-1™) (mouse fibroblasts) using the MTT test for 24- and 48 h cultures.
(§2) A549 (ECACC 86012804) (non-small-cell lung cancer) and T47D (ECACC 85102201) (breast cancer) were obtained from ECACC and propagated in Dulbecco’s Minimal Essential Medium, supplemented with 2 mM of glutamine, antibiotics ([…] streptomycin, 1% of 100 U/L penicillin) and 10% Fetal Bovine Serum. HeLa (ATCC® CCL-2™) (cervical cancer) and L929 (NCTC clone 929, ATCC® CCL-1™) (mouse fibroblasts) cell lines were obtained from ATCC and propagated in the Eagle Minimal Essential Medium supplemented with antibiotics ([…] streptomycin, 1% of 100 U/L penicillin) and with 10% and 5% FBS, respectively. The cell line was routinely grown in 75 cm^2 tissue culture flasks and kept in an incubator (humidified atmosphere of 5% CO2 at 37 °C). All examined cell lines were tested against mycoplasma contamination with microbiological assays.
(§3) The cell viability of tested compounds (14, 20, 21 and 27) was assessed by the MTT assay. In brief, the exponentially growing cells were plated in 100 μL/well in 96-well plates. After 24 h culturing, the cells were treated with different concentrations of compounds (range 10–100 μM). After 24 and 48 h of incubation, 10 μL of 5 mg/mL MTT was added to each well and the plates were incubated at 37 °C for additional 4 h. The medium was subsequently removed, the purple-colored precipitates of formazan were dissolved in 100 μL of DMSO. The color absorbance was recorded at 570 nm using a BioTek model EPOCH ELISA plate reader. All experiments were performed in triplicate. The absorbance values were in the range of linearity of the Lambert–Beer law.

HeLa cell line = test: MTT cytotoxicity assay; type: cell-based
Method: as §1, §2, §3

T47D cell line = test: MTT cytotoxicity assay; type: cell-based
Method: as §1, §2, §3

O=C(N/N=C/c1cc(Cl)cc(I)c1O)c1cccc(I)c1 [Compound 20, N-[(5-chloro-2-hydroxy-3-iodophenyl)methylidene]-3-iodobenzohydrazide]
MBC [1]: 3.91 mg/L (≈ 7.43 µM)
MIC [1]: 3.91 mg/L (≈ 7.43 µM)
MBC [2]: 1000 mg/L (≈ 1900 µM)
MBC/MIC [2]: 2
MIC [2]: 500 mg/L (≈ 950 µM)
cell proliferation (A549 cell line; A549, 24h, 10 µM, Repeat No 1): 87%
cell proliferation (A549 cell line; A549, 24h, 10 µM, Repeat No 2): 92%
cell proliferation (A549 cell line; A549, 24h, 25 µM, Repeat No 1): 83%
cell proliferation (A549 cell line; A549, 24h, 25 µM, Repeat No 2): 91%
cell proliferation (A549 cell line; A549, 24h, 50 µM, Repeat No 1): 83%
cell proliferation (A549 cell line; A549, 24h, 50 µM, Repeat No 2): 87%
cell proliferation (A549 cell line; A549, 24h, 75 µM, Repeat No 1): 91%
cell proliferation (A549 cell line; A549, 24h, 75 µM, Repeat No 2): 95%
cell proliferation (A549 cell line; A549, 24h, 100 µM, Repeat No 1): 90%
cell proliferation (A549 cell line; A549, 24h, 100 µM, Repeat No 2): 93%
cell proliferation (A549 cell line; A549, 48h, 10 µM, Repeat No 1): 88%
cell proliferation (A549 cell line; A549, 48h, 10 µM, Repeat No 2): 84%
cell proliferation (A549 cell line; A549, 48h, 25 µM, Repeat No 1): 79%
cell proliferation (A549 cell line; A549, 48h, 25 µM, Repeat No 2): 83%
cell proliferation (A549 cell line; A549, 48h, 50 µM, Repeat No 1): 88%
cell proliferation (A549 cell line; A549, 48h, 50 µM, Repeat No 2): 92%
cell proliferation (A549 cell line; A549, 48h, 75 µM, Repeat No 1): 99%
cell proliferation (A549 cell line; A549, 48h, 75 µM, Repeat No 2): 95%
cell proliferation (A549 cell line; A549, 48h, 100 µM, Repeat No 1): 91%
cell proliferation (A549 cell line; A549, 48h, 100 µM, Repeat No 2): 93%
cell proliferation (HeLa cell line; 24h, 10 µM, Repeat No 1): 87%
cell proliferation (HeLa cell line; 24h, 10 µM, Repeat No 2): 92%
cell proliferation (HeLa cell line; 24h, 25 µM, Repeat No 1): 81%
cell proliferation (HeLa cell line; 24h, 25 µM, Repeat No 2): 88%
cell proliferation (HeLa cell line; 24h, 50 µM, Repeat No 1): 78%
cell proliferation (HeLa cell line; 24h, 50 µM, Repeat No 2): 83%
cell proliferation (HeLa cell line; 24h, 75 µM, Repeat No 1): 85%
cell proliferation (HeLa cell line; 24h, 75 µM, Repeat No 2): 91%
cell proliferation (HeLa cell line; 24h, 100 µM, Repeat No 1): 81%
cell proliferation (HeLa cell line; 24h, 100 µM, Repeat No 2): 79%
cell proliferation (HeLa cell line; 48h, 10 µM, Repeat No 1): 88%
cell proliferation (HeLa cell line; 48h, 10 µM, Repeat No 2): 91%
cell proliferation (HeLa cell line; 48h, 25 µM, Repeat No 1): 73%
cell proliferation (HeLa cell line; 48h, 25 µM, Repeat No 2): 75%
cell proliferation (HeLa cell line; 48h, 50 µM, Repeat No 1): 87%
cell proliferation (HeLa cell line; 48h, 50 µM, Repeat No 2): 91%
cell proliferation (HeLa cell line; 48h, 75 µM, Repeat No 1): 99%
cell proliferation (HeLa cell line; 48h, 75 µM, Repeat No 2): 96%
cell proliferation (HeLa cell line; 48h, 100 µM, Repeat No 1): 93%
cell proliferation (HeLa cell line; 48h, 100 µM, Repeat No 2): 94%
cell proliferation (T47D cell line; 24h, 10 µM, Repeat No 1): 78%
cell proliferation (T47D cell line; 24h, 10 µM, Repeat No 2): 81%
cell proliferation (T47D cell line; 24h, 25 µM, Repeat No 1): 76%
cell proliferation (T47D cell line; 24h, 25 µM, Repeat No 2): 72%
cell proliferation (T47D cell line; 24h, 50 µM, Repeat No 1): 77%
cell proliferation (T47D cell line; 24h, 50 µM, Repeat No 2): 69%
cell proliferation (T47D cell line; 24h, 75 µM, Repeat No 1): 77%
cell proliferation (T47D cell line; 24h, 75 µM, Repeat No 2): 73%
cell proliferation (T47D cell line; 24h, 100 µM, Repeat No 1): 87%
cell proliferation (T47D cell line; 24h, 100 µM, Repeat No 2): 82%
cell proliferation (T47D cell line; 48h, 10 µM, Repeat No 1): 80%
cell proliferation (T47D cell line; 48h, 10 µM, Repeat No 2): 78%
cell proliferation (T47D cell line; 48h, 25 µM, Repeat No 1): 79%
cell proliferation (T47D cell line; 48h, 25 µM, Repeat No 2): 75%
cell proliferation (T47D cell line; 48h, 50 µM, Repeat No 1): 76%
cell proliferation (T47D cell line; 48h, 50 µM, Repeat No 2): 73%
cell proliferation (T47D cell line; 48h, 75 µM, Repeat No 1): 83%
cell proliferation (T47D cell line; 48h, 75 µM, Repeat No 2): 86%
cell proliferation (T47D cell line; 48h, 100 µM, Repeat No 1): 81%
cell proliferation (T47D cell line; 48h, 100 µM, Repeat No 2): 79%

O=C(N/N=C/c1cc(Br)cc(Br)c1O)c1cccc(I)c1 [Compound 21, N-[(3,5-dibromo-2-hydroxyphenyl)methylidene]-3-iodobenzohydrazide]
MBC [1]: 15.6 mg/L (≈ 29.8 µM)
MIC [1]: 15.6 mg/L (≈ 29.8 µM)
MIC [2]: > 1000 mg/L
cell proliferation (A549 cell line; A549, 24h, 10 µM, Repeat No 1): 88%
cell proliferation (A549 cell line; A549, 24h, 10 µM, Repeat No 2): 99%
cell proliferation (A549 cell line; A549, 24h, 25 µM, Repeat No 1): 88%
cell proliferation (A549 cell line; A549, 24h, 25 µM, Repeat No 2): 88%
cell proliferation (A549 cell line; A549, 24h, 50 µM, Repeat No 1): 92%
cell proliferation (A549 cell line; A549, 24h, 50 µM, Repeat No 2): 101%
cell proliferation (A549 cell line; A549, 24h, 75 µM, Repeat No 1): 103%
cell proliferation (A549 cell line; A549, 24h, 75 µM, Repeat No 2): 99%
cell proliferation (A549 cell line; A549, 24h, 100 µM, Repeat No 1): 87%
cell proliferation (A549 cell line; A549, 24h, 100 µM, Repeat No 2): 94%
cell proliferation (A549 cell line; A549, 48h, 10 µM, Repeat No 1): 92%
cell proliferation (A549 cell line; A549, 48h, 10 µM, Repeat No 2): 99%
cell proliferation (A549 cell line; A549, 48h, 25 µM, Repeat No 1): 94%
cell proliferation (A549 cell line; A549, 48h, 25 µM, Repeat No 2): 91%
cell proliferation (A549 cell line; A549, 48h, 50 µM, Repeat No 1): 97%
cell proliferation (A549 cell line; A549, 48h, 50 µM, Repeat No 2): 91%
cell proliferation (A549 cell line; A549, 48h, 75 µM, Repeat No 1): 83%
cell proliferation (A549 cell line; A549, 48h, 75 µM, Repeat No 2): 87%
cell proliferation (A549 cell line; A549, 48h, 100 µM, Repeat No 1): 91%
cell proliferation (A549 cell line; A549, 48h, 100 µM, Repeat No 2): 87%
cell proliferation (HeLa cell line; 24h, 10 µM, Repeat No 1): 89%
cell proliferation (HeLa cell line; 24h, 10 µM, Repeat No 2): 88%
cell proliferation (HeLa cell line; 24h, 25 µM, Repeat No 1): 89%
cell proliferation (HeLa cell line; 24h, 25 µM, Repeat No 2): 92%
cell proliferation (HeLa cell line; 24h, 50 µM, Repeat No 1): 86%
cell proliferation (HeLa cell line; 24h, 50 µM, Repeat No 2): 104%
cell proliferation (HeLa cell line; 24h, 75 µM, Repeat No 1): 104%
cell proliferation (HeLa cell line; 24h, 75 µM, Repeat No 2): 87%
cell proliferation (HeLa cell line; 24h, 100 µM, Repeat No 1): 87%
cell proliferation (HeLa cell line; 24h, 100 µM, Repeat No 2): 91%
cell proliferation (HeLa cell line; 48h, 10 µM, Repeat No 1): 86%
cell proliferation (HeLa cell line; 48h, 10 µM, Repeat No 2): 93%
cell proliferation (HeLa cell line; 48h, 25 µM, Repeat No 1): 101%
cell proliferation (HeLa cell line; 48h, 25 µM, Repeat No 2): 97%
cell proliferation (HeLa cell line; 48h, 50 µM, Repeat No 1): 81%
cell proliferation (HeLa cell line; 48h, 50 µM, Repeat No 2): 87%
cell proliferation (HeLa cell line; 48h, 75 µM, Repeat No 1): 91%
cell proliferation (HeLa cell line; 48h, 75 µM, Repeat No 2): 89%
cell proliferation (HeLa cell line; 48h, 100 µM, Repeat No 1): 88%
cell proliferation (HeLa cell line; 48h, 100 µM, Repeat No 2): 92%
cell proliferation (T47D cell line; 24h, 10 µM, Repeat No 1): 82%
cell proliferation (T47D cell line; 24h, 10 µM, Repeat No 2): 84%
cell proliferation (T47D cell line; 24h, 25 µM, Repeat No 1): 83%
cell proliferation (T47D cell line; 24h, 25 µM, Repeat No 2): 88%
cell proliferation (T47D cell line; 24h, 50 µM, Repeat No 1): 78%
cell proliferation (T47D cell line; 24h, 50 µM, Repeat No 2): 76%
cell proliferation (T47D cell line; 24h, 75 µM, Repeat No 1): 71%
cell proliferation (T47D cell line; 24h, 75 µM, Repeat No 2): 79%
cell proliferation (T47D cell line; 24h, 100 µM, Repeat No 1): 73%
cell proliferation (T47D cell line; 24h, 100 µM, Repeat No 2): 78%
cell proliferation (T47D cell line; 48h, 10 µM, Repeat No 1): 79%
cell proliferation (T47D cell line; 48h, 10 µM, Repeat No 2): 71%
cell proliferation (T47D cell line; 48h, 25 µM, Repeat No 1): 79%
cell proliferation (T47D cell line; 48h, 25 µM, Repeat No 2): 81%
cell proliferation (T47D cell line; 48h, 50 µM, Repeat No 1): 81%
cell proliferation (T47D cell line; 48h, 50 µM, Repeat No 2): 79%
cell proliferation (T47D cell line; 48h, 75 µM, Repeat No 1): 69%
cell proliferation (T47D cell line; 48h, 75 µM, Repeat No 2): 74%
cell proliferation (T47D cell line; 48h, 100 µM, Repeat No 1): 78%
cell proliferation (T47D cell line; 48h, 100 µM, Repeat No 2): 71%
